Among the test systems are OVCAR-8 ovarian; HCT-116 colon; SW-620 colon; NCI-H460 lung; PC-3 prostate; MALME-3M melanoma; DU-145 prostate; SK-MEL-28 melanoma; SF-295 CNS; MDA-MB-435; HOP-92 NSCLC; SR leukemia; NCI-H226 lung.
Common to all, as to test: DTP human tumour cell line panel, 48 h

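Interpolation was linear, between the two tested concentrations surrounding the appropriate level; five concentrations were tested over 48 hours in 96-well plates. The concentration for full growth arrest is given as TGI.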 Where a SMILES comes first, the peptide text is derived from it.

For `S=C(Nc1cccc(C2(N3CCCCC3)CCCCC2)c1)Nc1cccc(C2(N3CCCCC3)CCCCC2)c1`, the total growth inhibition concentration (TGI) in the assay with OVCAR-8 ovarian was 59.2 µM; with HCT-116 colon, 48.4 µM; in the assay with SW-620 colon it was > 100 µM; with NCI-H460 lung, 36.7 µM; in the assay on PC-3 prostate it was > 100 µM; in the assay with MALME-3M melanoma it was 36.1 µM. Further, the TGI is 80.8 µM with DU-145 prostate; 35.3 µM in the assay with SK-MEL-28 melanoma; > 100 µM with SF-295 CNS; 30.6 µM in the assay on MDA-MB-435; 43.9 µM in the assay on HOP-92 NSCLC; 31.6 µM with SR leukemia. In the assay on NCI-H226 lung, this molecule displayed a TGI of 78.5 µM.

As to `CCCN(CCC)C(=O)c1c(Cl)c2cccnc2n2c(C)cnc12`, the TGI in the assay on OVCAR-8 ovarian is > 100 µM; in the assay with HCT-116 colon, > 100 µM; in the assay on SW-620 colon, > 100 µM; in the assay on NCI-H460 lung it was > 100 µM; in the assay with PC-3 prostate, 98.6 µM; in the assay with MALME-3M melanoma it was > 100 µM. Also, the TGI in the assay with DU-145 prostate was > 100 µM; with SK-MEL-28 melanoma, > 100 µM; in the assay on SF-295 CNS, > 100 µM; in the assay with MDA-MB-435 it was 85.3 µM; with HOP-92 NSCLC it was > 100 µM; in the assay with SR leukemia, > 100 µM. Besides, in the assay on NCI-H226 lung, the TGI was > 100 µM.

With `CC(=O)NC(CO)C(=O)NC(Cc1ccc(O)cc1)C(=O)NCC(N)=O` (stereo not drawn) (Ac-Ser-Tyr-Gly-NH2; configuration not given here), the TGI with OVCAR-8 ovarian, with HCT-116 colon, in the assay with SW-620 colon, in the assay on NCI-H460 lung, in the assay on PC-3 prostate and in the assay on MALME-3M melanoma was > 100 µM each time. Moreover, the TGI with DU-145 prostate, with SK-MEL-28 melanoma, with SF-295 CNS, with MDA-MB-435, with HOP-92 NSCLC and with SR leukemia was > 100 µM each time. Besides, the TGI in the assay with NCI-H226 lung is > 100 µM.

Consider `Nc1nc(NCCOCP(=O)(O)O)c(N)c(=O)[nH]1`, for which the TGI in the assay with OVCAR-8 ovarian, with HCT-116 colon, in the assay on SW-620 colon, with NCI-H460 lung, in the assay on PC-3 prostate and in the assay with MALME-3M melanoma was > 100 µM each time. The TGI in the assay with DU-145 prostate, in the assay on SK-MEL-28 melanoma, in the assay on SF-295 CNS, in the assay on MDA-MB-435, with HOP-92 NSCLC and with SR leukemia was > 100 µM throughout. Also, the TGI in the assay on NCI-H226 lung was > 100 µM.

Turning to `CC(C)(C)N=c1n(C(C)(C)C)oc(=O)n1-c1ccccc1`, the TGI in the assay with OVCAR-8 ovarian, in the assay on HCT-116 colon, in the assay with SW-620 colon, with NCI-H460 lung, with PC-3 prostate and with MALME-3M melanoma was > 50 µM throughout. In addition, the TGI in the assay on DU-145 prostate, with SK-MEL-28 melanoma, in the assay on SF-295 CNS, with MDA-MB-435, with HOP-92 NSCLC and with SR leukemia was > 50 µM each time. Moreover, the concentration for total growth inhibition (TGI) in the assay on NCI-H226 lung is > 50 µM.

In the case of `COc1ccc(N2C(=O)C3c4[nH]c5ccc(OCc6ccccc6)cc5c4C4CCC(C(C)C)CC4C3C2=O)cc1` (stereo not given), the TGI in the assay on OVCAR-8 ovarian was > 100 µM; with HCT-116 colon, > 100 µM; with SW-620 colon, > 100 µM; in the assay with NCI-H460 lung it was > 45.8 µM; in the assay with PC-3 prostate, > 100 µM; with MALME-3M melanoma, > 100 µM. In addition, the TGI in the assay on DU-145 prostate was > 100 µM; with SK-MEL-28 melanoma, > 100 µM; in the assay with SF-295 CNS it was 29.3 µM; in the assay with MDA-MB-435 it was > 100 µM; in the assay on HOP-92 NSCLC it was 93.2 µM; in the assay on SR leukemia, 22.9 µM. This molecule also showed a concentration for total growth inhibition (TGI) with NCI-H226 lung of 42.9 µM.

Regarding `CNc1ncnc2c1cnn2Cc1cn(CCCCO)nn1`, the TGI with OVCAR-8 ovarian, with HCT-116 colon, in the assay on SW-620 colon, with NCI-H460 lung, in the assay with PC-3 prostate and with MALME-3M melanoma was > 100 µM in each case. The TGI in the assay with DU-145 prostate, in the assay on SK-MEL-28 melanoma, in the assay on SF-295 CNS, with MDA-MB-435, with HOP-92 NSCLC and with SR leukemia was > 100 µM throughout. Besides, the TGI with NCI-H226 lung is > 100 µM.

Regarding `COC(=O)CCC(C)[C@H]1CCC2C3C(C[C@H](OC(C)=O)[C@@]21C)[C@@]1(C)CCC2(C[C@H]1C[C@H]3OC(C)=O)OOC1(CCCCC1)OO2` (stereo not given in full), the total growth inhibition concentration (TGI) is > 100 µM in the assay on OVCAR-8 ovarian; > 100 µM with HCT-116 colon; > 100 µM with SW-620 colon; > 100 µM in the assay on NCI-H460 lung; > 100 µM in the assay with PC-3 prostate; 97.4 µM in the assay with MALME-3M melanoma. The TGI in the assay with DU-145 prostate was > 100 µM; in the assay on SK-MEL-28 melanoma it was > 100 µM; in the assay with SF-295 CNS, 80.4 µM; with MDA-MB-435, > 100 µM; in the assay on HOP-92 NSCLC, 26.5 µM; in the assay with SR leukemia, > 100 µM. The TGI in the assay with NCI-H226 lung was > 100 µM.

Consider `COc1cccc(C(=O)N[C@@H]2[C@H](O)[C@@H](CO)O[C@H]2n2cnc3c(N)ncnc32)c1`, for which the concentration for total growth inhibition (TGI) in the assay on OVCAR-8 ovarian, in the assay on HCT-116 colon, with SW-620 colon, in the assay on NCI-H460 lung, in the assay with PC-3 prostate and in the assay on MALME-3M melanoma was > 100 µM throughout. The total growth inhibition concentration (TGI) in the assay with DU-145 prostate, in the assay with SK-MEL-28 melanoma, in the assay with SF-295 CNS, in the assay on MDA-MB-435, in the assay with HOP-92 NSCLC and in the assay with SR leukemia was > 100 µM throughout. Also, the TGI with NCI-H226 lung is > 100 µM.

With `CC(C)(CN)SCc1ccccc1`, the TGI in the assay on OVCAR-8 ovarian, with HCT-116 colon, with SW-620 colon, in the assay on NCI-H460 lung, in the assay on PC-3 prostate and in the assay with MALME-3M melanoma was > 100 µM in each case. Moreover, the TGI in the assay with DU-145 prostate, with SK-MEL-28 melanoma, in the assay with SF-295 CNS, in the assay on MDA-MB-435, in the assay with HOP-92 NSCLC and in the assay with SR leukemia was > 100 µM in each case. Further, in the assay on NCI-H226 lung, the TGI was > 100 µM.

Source of the values: PubChem BioAssay (NCI).
